Data set [1] has as its system participants with cocaine use disorder. Put plainly: Experimental sessions: subjective effects questionnaires after cocaine sampling dose during maintenance. The note with it: for subjective effects of cocaine: maintenance on the drug alone; for cocaine-increased ratings of High, Like Drug, Active-Alert-Energetic, Rush and Stimulant Subscale: maintenance on topiramate and phentermine, alone or combined.

Data set [2] has the same test system. Briefly: Cocaine self-administration on progressive-ratio task during topiramate-phentermine maintenance. The class given is in vivo, human. The method, then:
The maintenance period for each condition was at least seven (7) days. Participants randomized to 50 or 100 mg/day topiramate initially received 12.5 and 25 mg immediate release topiramate, respectively, twice daily (0700 and 1900 hours) for three (3) days. Participants then received their target dose (i.e., 25 and 50 mg BID, respectively) for four (4) days prior to completing the first block of experimental sessions. This dosing regimen allowed participants to acclimate to a lower topiramate dose before receiving their target dose and was the rationale for topiramate being a between-subject variable. Participants randomized to placebo were also maintained for seven (7) days to maintain the study blind, but their capsules contained only cornstarch.
Phentermine (0, 15, 30 mg) was administered once daily at 0700 hours. Within each topiramate cohort, the phentermine doses were tested in ascending order such that the lower dose (15 mg/day) was tested prior to the higher dose (30 mg/day). This dosing sequence was violated twice due to oversight (i.e., one subject in the 0 mg/day topiramate group and the other in the 50 mg/day topiramate group). Both of these participants were initially maintained on 30 mg/day phentermine.
After at least seven (7) days of maintenance on the first topiramate-phentermine condition, participants completed a block of three experimental sessions described below. Maintenance on the assigned condition continued during each block of experimental sessions. Upon completion of the first block of experimental sessions, participants continued maintenance on the assigned topiramate condition, while the phentermine dose was changed to the next condition. Maintenance on the second topiramate-phentermine condition also lasted at least seven (7) days before the next block of experimental sessions was completed. […]
The reinforcing effects of cocaine during maintenance on the topiramate-phentermine combinations were assessed using a progressive-ratio task. […]

Data set [3] shares this test system. Put plainly: Experimental sessions: cardiovascular measures after cocaine sampling dose during maintenance. Conditions: maintenance on the drug alone.
For data set [4] the test system is unchanged. Conditions: in vivo.

Structures are written as SMILES. Where two headings read alike, the source gives them in different places.

Turning to `CC(C)(N)Cc1ccccc1` [phentermine], in data set [1], the “subjective effects of cocaine” value was “did not significantly alter”; the “cocaine-increased ratings of High, Like Drug, Active-Alert-Energetic, Rush and Stimulant Subscale” value was “did not significantly alter”. The cocaine self-administration entry in data set [2] (Phentermine alone) was “did not significantly reduce”. For the same molecule, in data set [2] (maintenance on the drug alone), the “reinforcing effects of cocaine” value is “did not significantly alter”. The “cardiovascular effects of cocaine” value in data set [3] was “did not significantly alter”.
Turning to `CC1(C)O[C@@H]2[C@@H](CO[C@@]3(COS(N)(=O)=O)OC(C)(C)O[C@@H]23)O1` [topiramate], in data set [1], the “subjective effects of cocaine” value was “did not alter”; the “cocaine-increased ratings of High, Like Drug, Active-Alert-Energetic, Rush and Stimulant Subscale” value was “did not significantly alter”. Moreover, the “reduction of cocaine self-administration” value in data set [2] (cocaine 40 mg, Topiramate alone (100 mg/day)) is listed as 47%. For the same molecule, the “cardiovascular effects of cocaine” value in data set [4] is reported as “did not alter”.
